Assay results published in patent US20230159509A1 (Amathus Therapeutics, Inc., priority 2020, published 2023).

Tests used:
human α-synuclein-WT = experiment: α-synuclein expression and aggregation assay in differentiated neuronal ReNcell VM cells; format: cell-based
Protocol: Assay measuring α-synuclein expression and aggregation in differentiated neuronal ReNcell VM cells transduced with human α-synuclein-WT were used to assess the α-synuclein modulation characteristics of compounds. To this purpose, ReNcell VM cells in growth medium (containing EGF and bFGF) were seeded in 96-well laminin-coated plates.
Three (3) days post-seeding, on DO, the cells were refreshed with differentiation medium (devoid of EGF and bFGF, supplemented with cAMP and GDNF) and transduced with α-synuclein-encoding adenoviruses. On D1, after overnight transduction, the adenoviral medium was removed and test compound CRCs diluted in differentiation medium were added to the cells in biological duplicates (i.e. in wells located on separate assay plates processed on the same day). The assay includes a compound refreshment on D4. On each plate tested, up to six (6) vehicle control samples (0.1% DMSO) and up to six (6) positive control samples (10 μM KU 0063794) were included. Furthermore, each assay run includes an 8-point CRC of the reference compound KU 0063794. After six (6) days of compound treatment (on D7), the cells were fixed using 3.7% formaldehyde.
Assay readouts were aggregate-selective (MJFR-14) and α/β-synuclein (Syn205) immunoreactivity, quantified using high-content analysis with algorithms for Density×Area (D×A). Co-staining of cell nuclei with DAPI is performed to quantify cell number as a measure of potential toxicity. Synuclein immunoreactivity (D×A) was normalized for the number of nuclei (nuc) per imaged well (D×A/nuc). Compound performance was evaluated by efficacy (percentage inhibition (PIN) relative to positive control) and potency (pIC50, when calculable) determination.
Assay quality was confirmed using the following pre-set criteria: Toxicity: ≤25% nuclei loss compared to average DMSO control, Coefficient of variation (CV): ≤20% CV for DMSO control, Assay window: ≥2.0 for Syn205, and Assay window: ≥1.5 for MJF-14.

α-synuclein = α-synuclein aggregation in human embryonic stem cells overexpressing α-synuclein with an AAV vector; format: cell-based; details: FIG. 9

`COc1ncc(NC(=O)c2csc(-c3ccccc3)n2)cc1S(=O)(=O)Nc1c(C)cccc1C` [compound 1178] was tested, and the “MJFR-14 Max efficacy (PE)” value (human α-synuclein-WT; MJFR-14) was 36.2, the “MJFR-14 Max efficacy (PIN)” value (human α-synuclein-WT; MJFR-14, percentage inhibition relative to positive control (10 μM KU 0063794)) was 52.1 and the “Syn205 Max efficacy (PE)” value (human α-synuclein-WT; Syn205) was 44.9. For the same molecule, the “Syn205 Max efficacy (PIN)” value (human α-synuclein-WT; Syn205, percentage inhibition relative to positive control (10 μM KU 0063794)) was 64.7, the “MJFR-14 Potency (pIC50)” value (human α-synuclein-WT; aggregate-selective (MJFR-14) immunoreactivity, D×A/nuc) was 5.6 and the “Syn205 Potency (pIC50)” value (human α-synuclein-WT; α/β-synuclein (Syn205) immunoreactivity, D×A/nuc) was 5.6. For the same molecule, the α-synuclein aggregation (α-synuclein) was “reduction in α-synuclein aggregation”.
